Laboratory results: patent publication US20250320205A1, “STAT6 DEGRADERS” (Gilead Sciences, Inc., priority 2024, published 2025)
pEC50: −log10 of the molar value.

Experiments:
STAT6 = target: T1, STAT6 (Homo sapiens, UniProt P42226); experiment: STAT6 Degrader Assay (HiBiT based, HeLa LgBiT clone 4.14 cells); type: cell-based; settings: geometric mean across assay runs and compound batches; DC50 provided for test compounds with >80% Emax; read-out: STAT6 degradation DC50
T1 construct: These cells express endogenous STAT6; host or cells: HeLa LgBiT clone 4.14 (CRISPR knock-in of HiBiT into the endogenous STAT6 gene)
T1 sequence (P42226 1-847): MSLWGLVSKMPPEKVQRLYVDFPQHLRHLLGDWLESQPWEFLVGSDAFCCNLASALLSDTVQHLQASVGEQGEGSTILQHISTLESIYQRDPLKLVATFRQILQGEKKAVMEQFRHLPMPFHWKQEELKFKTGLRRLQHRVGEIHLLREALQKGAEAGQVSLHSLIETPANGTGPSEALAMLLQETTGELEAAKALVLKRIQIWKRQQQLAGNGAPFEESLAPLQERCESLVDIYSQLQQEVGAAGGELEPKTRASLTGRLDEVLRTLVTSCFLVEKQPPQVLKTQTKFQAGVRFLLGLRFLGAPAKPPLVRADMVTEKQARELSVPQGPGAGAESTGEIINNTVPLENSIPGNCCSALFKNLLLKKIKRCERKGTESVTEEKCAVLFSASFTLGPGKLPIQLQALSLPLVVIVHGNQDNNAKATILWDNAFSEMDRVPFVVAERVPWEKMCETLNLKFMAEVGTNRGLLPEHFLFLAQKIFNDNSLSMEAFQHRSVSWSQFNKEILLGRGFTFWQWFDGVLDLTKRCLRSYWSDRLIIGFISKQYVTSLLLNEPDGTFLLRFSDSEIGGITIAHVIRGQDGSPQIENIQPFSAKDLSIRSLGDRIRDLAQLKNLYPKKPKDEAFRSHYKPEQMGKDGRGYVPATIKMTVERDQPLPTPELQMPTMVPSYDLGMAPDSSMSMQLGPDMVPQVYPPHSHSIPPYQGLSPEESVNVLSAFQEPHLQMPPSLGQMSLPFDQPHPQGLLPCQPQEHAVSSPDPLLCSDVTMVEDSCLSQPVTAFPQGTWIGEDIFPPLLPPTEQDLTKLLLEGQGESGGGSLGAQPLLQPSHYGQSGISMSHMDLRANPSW
How it was run: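 DC50 (nM) comes from NanoBiT luminescence of HiBiT-knock-in STAT6 in HeLa LgBiT clone 4.14 cells, treated 4-24 h at 37° C. Luminescence reflects non-degraded STAT6, with 50 μM terfenadine wells taken as full degradation.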

[1] = system: Eotaxin-3 (CCL26) release; experiment: Human Whole Blood Eotaxin-3 Assay (IL-4 stimulated); type: cell-based; settings: Homo sapiens; geometric mean across assay runs and compound batches; EC50 provided for test compounds with >80% Emax
Description: This was a human whole blood assay using recombinant human Interleukin 4 to stimulate the blood and measuring the ability of the test compounds to inhibit eotaxin-3 release. The biological activities of the test compounds have been tested in human whole blood stimulated with IL-4 measuring Eotaxin-3 release. The test compounds were added to 384 well clear flat-bottom plate in a 4-fold serial dilution in triplicates using a liquid handler. Human whole blood stabilized in lithium-heparin tubes was added in a volume of 65 μL per well, resulting in a final DMSO concentration of 0.5%. The plate is incubated for 2 h at 37° C. under 5% CO2/95% air. Subsequently, 5 μL of recombinant human IL-4 (R&D Systems, cat #204-ILB) was added to the wells to a final concentration of 400 pM. The plate was incubated for 48 h at 37° C. under 5% CO2/95% air. The plate was spun down for 10 minutes at 500×g and 20 μL supernatant was harvested and transferred to a 384 well v-bottom plate using a liquid handler and stored at −20° C. until further analysis. 10 μL supernatant was used to measure the level of Eotaxin-3 (CCL26) using Human Eotaxin-3 MSD kit from Mesocsale (Cat #K251UEK-4). The assay was performed according to the manufacture instructions.

| SMILES | DC50 (STAT6) [nM] | pEC50 [1] |
| --- | --- | --- |
| CNc1ccn(-c2ccnc3c2cc([C@H](C)N2CCC(c4c(C)cc(C(=O)N5CCC(CN6CCN(c7ccc(NC8CCC(=O)NC8=O)cc7F)CC6)CC5)cc4F)CC2)n3C)c(=O)c1 (stereo partly drawn) [Example 2g43, 3-((3-fluoro-4-(4-((1-(3-fluoro-5-methyl-4-(1-((S)-1-(1-methyl-4-(2-(methyl-amino)-2-oxopyridin-1(2H)-yl)-1H-pyrrolo[2,3-b]pyridin-2-yl)ethyl)piperidin-4-yl)-benzoyl)piperidin-4-yl)meth-yl)piperazin-1-yl)phenyl)-amino)piperidine-2,6-dione] | 15.7 | 7.19 |
| Cc1cc(C(=O)N2CCC(CN3CCN(c4ccc(NC5CCC(=O)NC5=O)cc4F)CC3)CC2)cc(F)c1C1=CCN([C@@H](C)c2cc3c(-n4ccc5c(c4=O)CCN5)ccnc3n2C)CC1 (stereo partly drawn) [Example 2g18, 3-((3-fluoro-4-(4-((1-(3-fluoro-5-methyl-4-(1-((S)-1-(1-methyl-4-(4-oxo-1,2,3,4-tetrahydro-5H-pyrrolo[3,2-c]pyridin-5-yl)-1H-pyrrolo[2,3-b]pyridin-2-yl)ethyl)-1,2,3,6-tetrahydropyridin-4-yl)benzo-yl)piperidin-4-yl)methyl)-piperazin-1-yl)phenyl)amino)-piperidine-2,6-dione] | 3.1 | 8.26 |
| CNc1ccn(-c2ccnc3c2cc([C@H](C)N2CC=C(c4c(C)cc(C(=O)N5CCC(CN6CCN(c7ccc(N[C@H]8CCC(=O)NC8=O)cc7F)C[C@@H]6C)CC5)cc4F)CC2)n3C)c(=O)c1 (single isomer, unassigned) [Example 2g98] | 6.9 | 7.78 |
| CNc1cc(=O)n(-c2ccnc3c2cc([C@H](C)N2CC=C(c4c(C)cc(C(=O)N5CCn6nc(CN7CCC(c8ccc(NC9CCC(=O)NC9=O)cc8F)CC7)cc6C5)cc4F)CC2)n3C)cc1F (stereo partly drawn) [Example 2g4, 3-((3-fluoro-4-(1-((5-(3-fluoro-4-(1-((S)-1-(4-(5-fluoro-4-(methylamino)-2-oxopyridin-1(2H)-yl)-1-meth-yl-1H-pyrrolo[2,3-b]pyridin-2-yl)ethyl)-1,2,3,6-tetrahydro-pyridin-4-yl)-5-methylbenzo-yl)-4,5,6,7-tetrahydropyrazolo [1,5-a]pyrazin-2-yl)methyl)-piperidin-4-yl)phenyl)amino)-piperidine-2,6-dione] | 0.5 | 8.72 |
| CNc1cc(=O)n(-c2ccnc3c2cc([C@H](C)N2CC=C(c4c(C)cc(C(=O)N5CCn6nc(CN7CCC(c8ccc(N[C@@H]9CCC(=O)NC9=O)cc8F)CC7)cc6C5)cc4F)CC2)n3C)cc1F (single isomer, unassigned) [Example 2g5] | 0.5 | 8.57 |
| CNc1ccn(-c2ccnc3c2cc([C@H](C)N2CC=C(c4c(C)cc(C(=O)N5CCn6nc(CN7CCC(c8ccc(N[C@H]9CCC(=O)NC9=O)c(OC)c8)CC7)cc6C5)cc4F)CC2)n3C)c(=O)c1 (single isomer, unassigned) [Example 2g117] | 0.3 | 9.30 |
| CNc1cc(=O)n(-c2ccnc3c2cc([C@H](C)N2CC=C(c4c(F)cc(C(=O)N5CCC(CN6CCN(c7ccc(NC8CCC(=O)NC8=O)cc7F)CC6)CC5)cc4F)CC2)n3C)cc1F (stereo partly drawn) [Example 2g119, 3-((4-(4-((1-(3,5-difluoro-4-(1-((S)-1-(4-(5-fluoro-4-(methylamino)-2-oxopyridin-1(2H)-yl)-1-methyl-1H-pyr-rolo[2,3-b]pyridin-2-yl)ethyl)-1,2,3,6-tetrahydropyridin-4-yl)benzoyl)piperidin-4-yl)-methyl)piperazin-1-yl)-3-fluorophenyl)amino)piperi-dine-2,6-dione] | 14 | 7.32 |
| CNc1ccn(-c2ccnc3c2cc(CN2CCC(c4c(F)cc(C(=O)N5CCC(CN6CCN(c7ccc(N[C@H]8CCC(=O)NC8=O)cc7F)CC6)CC5)cc4F)CC2)n3C)c(=O)c1 (single isomer, unassigned) [Example 2g58] | 10.4 | 6.71 |
| CNc1ccn(-c2ccnc3c2cc([C@H](C)N2CC=C(c4c(C)cc(C(=O)N5CCC(CN6CCN(c7ccc(NC8CCC(=O)NC8=O)cc7F)C[C@@H]6C)CC5)cc4F)CC2)n3C)c(=O)c1 (stereo partly drawn) [Example 2g97, 3-((3-fluoro-4-((S)-4-((1-(3-fluoro-5-methyl-4-(1-((S)-1-(1-methyl-4-(4-(methyl-amino)-2-oxopyridin-1(2H)-yl)-1H-pyrrolo[2,3-b]pyridin-2-yl)ethyl)-1,2,3,6-tetrahydro-pyridin-4-yl)benzoyl)piperi-din-4-yl)methyl)-3-methyl-piperazin-1-yl)phenyl)amino)-piperidine-2,6-dione] | 20.8 | 7.44 |
| C[C@@H]1CN(c2ccc(NC3CCC(=O)NC3=O)cc2F)CCN1CC1CCN(C(=O)c2ccc(C3CCN([C@@H](C)c4cc5c(-n6ccc7c(c6=O)CCN7)ccnc5n4C)CC3)cc2)CC1 (stereo partly drawn) [Example 2f14, 3-((3-fluoro-4-((R)-3-methyl-4-((1-(4-(1-((S)-1-(1-methyl-4-(4-oxo-1,2,3,4-tetrahydro-5H-pyrrolo[3,2-c]pyridin-5-yl)-1H-pyrrolo[2,3-b]pyridin-2-yl)ethyl)piperidin-4-yl)-benzoyl)piperidin-4-yl)-meth-yl)piperazin-1-yl)phenyl)-amino)piperidine-2,6-dione] | 7.8 | 7.73 |
| CNc1cc(=O)n(-c2ccnc3c2cc([C@H](C)N2CC=C(c4c(F)cc(C(=O)N5CCC(CN6CCN(c7ccc(N[C@H]8CCC(=O)NC8=O)cc7F)CC6)CC5)cc4F)CC2)n3C)cc1F (single isomer, unassigned) [Example 2g120] | 9.4 | 7.44 |
| CNc1cc(=O)n(-c2ccnc3c2cc([C@H](C)N2CC=C(c4c(C)cc(C(=O)N5CCC(CN6CCN(c7ccc(NC8CCC(=O)NC8=O)cc7F)CC6)CC5)cc4F)CC2)n3C)cc1F (stereo partly drawn) [Example 2g91, 3-((3-fluoro-4-(4-((1-(3-fluoro-4-(1-((S)-1-(4-(5-fluoro-4-(methylamino)-2-oxopyridin-1(2H)-yl)-1-methyl-1H-pyrrolo[2,3-b]pyridin-2-yl)ethyl)-1,2,3,6-tetrahydropyridin-4-yl)-5-methyl-benzoyl)piperidin-4-yl)methyl)piperazin-1-yl)-phenyl)amino)piperidine-2,6-dione] | 7 | 8.04 |
| CNc1cc(=O)n(-c2ccnc3c2cc([C@H](C)N2CC=C(c4c(C)cc(C(=O)N5CCn6nc(CN7CCC(c8ccc(N[C@H]9CCC(=O)NC9=O)c(OC)c8)CC7)cc6C5)cc4F)CC2)n3C)cc1F (single isomer, unassigned) [Example 2g11] | 1 | 8.77 |
| CNc1ccn(-c2ccnc3c2cc([C@H](C)N2CC=C(c4c(C)cc(C(=O)N5CCC(CN6CCN(c7ccc(N[C@H]8CCC(=O)NC8=O)c(OC)c7)CC6)CC5)cc4F)CC2)n3C)c(=O)c1 (single isomer, unassigned) [Example 2g126] | 4.3 | 7.67 |
| C[C@@H](c1cc2c(-n3ccc4c(c3=O)CCN4)ccnc2n1C)N1CCC(c2ccc(C(=O)N3CCC(CN4CCN(c5ccc(N[C@H]6CCC(=O)NC6=O)cc5F)CC4)CC3)cc2)CC1 (single isomer, unassigned) [Example 2c36] | 5.7 | 7.66 |
